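How tested: cells in 96-well plates exposed to compound for 48 hours at five concentrations. GI50: concentration for 50% inhibition of growth.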 Calls of active or inactive are those of the source. Rule as the data show it: active = GI50 up to about 1.1 µM and inactive = higher.
Columns and labels:
Assay in all cases: growth of human tumour cells (NCI), 48 h
[1] = tested on: A549
[2] = tested on: DMS-273
[3] = tested on: HOP-62
[4] = tested on: K562
[5] = tested on: KM-20L2
[6] = tested on: KM12
[7] = tested on: M14
[8] = tested on: MOLT-4
[9] = tested on: SF-539
[10] = tested on: SN12C
[11] = tested on: SNB-75
[12] = tested on: TK-10
[13] = tested on: UO-31
[14] = tested on: OVCAR-5
[15] = tested on: RPMI-8226

Measured: GI50

CCC(C)CNC1=C(NC(C)=O)C(=O)c2ccccc2C1=O (centres undefined)
inactive: [1] > 100 µM | [2] > 100 µM | [3] > 100 µM | [4] > 100 µM | [5] > 100 µM | [6] > 100 µM | [7] > 100 µM | [8] > 100 µM | [9] > 100 µM | [10] > 100 µM | [11] > 100 µM | [12] > 100 µM | [13] > 100 µM

N/N=C1\c2ccccc2C2/C(=N\N)c3ccccc3C12 (centres undefined)
inactive: [1] > 100 µM | [2] > 100 µM | [4] > 100 µM | [5] > 100 µM | [6] > 100 µM | [7] > 100 µM | [8] > 100 µM | [14] > 100 µM | [15] > 100 µM | [9] > 100 µM | [10] > 100 µM | [11] 56.1 µM | [12] > 100 µM | [13] > 10 µM

O=C1c2c(c3c4ccccc4[nH]c3c3[nH]c4ccccc4c23)C(=O)N1Cc1ccccc1
inactive: [1] 3.48 µM | [2] 2.74 µM | [3] 3.95 µM | [4] 3.05 µM | [5] 2.94 µM | [6] 3.08 µM | [7] 3.31 µM | [8] 2.14 µM | [14] 2.62 µM | [15] 2.36 µM | [9] 2.37 µM | [10] 2.1 µM | [11] 3.09 µM | [12] 4.25 µM | [13] 2.53 µM

Cc1c(-c2nnc(-c3ccc(Cl)cc3)o2)c(=O)n(-c2ccccc2)n1C
inactive: [1] > 100 µM | [2] > 100 µM | [3] > 100 µM | [4] > 100 µM | [5] > 100 µM | [6] > 100 µM | [7] > 100 µM | [8] > 100 µM | [15] > 100 µM | [9] 3.33 µM | [10] > 100 µM | [11] > 100 µM | [12] > 100 µM | [13] > 100 µM

C/C(=N\Nc1ccccc1)c1sc(-c2nc(C)c(/C(C)=N/Nc3ccccc3)s2)nc1C
inactive: [1] 13.5 µM | [2] 8.93 µM | [4] 7.36 µM | [5] 6.46 µM | [6] 24.7 µM | [7] 7.71 µM | [8] 19.2 µM | [14] 51.3 µM | [15] 12.6 µM | [9] 16.1 µM | [10] > 78.2 µM | [11] 23.4 µM | [12] 80.9 µM | [13] 8.83 µM

N#CCCN(CCC#N)c1ccc(/C=C2\N=C(COc3ccc(Cl)cc3Cl)OC2=O)cc1
inactive: [1] > 100 µM | [2] > 100 µM | [3] > 100 µM | [4] > 100 µM | [5] > 100 µM | [6] > 100 µM | [7] > 100 µM | [8] > 100 µM | [14] > 100 µM | [15] > 100 µM | [9] > 100 µM | [10] > 100 µM | [11] 71.8 µM | [12] > 100 µM | [13] > 100 µM

CCOc1ccccc1/N=N/c1ccc2oc(=O)c(C(=O)Nc3cccc(C)c3)cc2c1
inactive: [1] 42.3 µM | [2] 34.3 µM | [3] 49.1 µM | [4] 23.3 µM | [5] 43.5 µM | [6] 30 µM | [7] 18.7 µM | [8] 19.9 µM | [14] > 100 µM | [15] 24.5 µM | [9] 25.8 µM | [10] 36.3 µM | [11] 37 µM | [12] 48.3 µM | [13] 16.6 µM

COC(=O)CC[C@]12C[C@]13CC[C@]1(C)C4C(C)C[C@]5(CC(C)C(=O)O5)OC4CC1(C)C3CCC2C(C)(C)O (some centres undefined)
inactive: [1] > 100 µM | [2] 32.7 µM | [3] 45.6 µM | [4] 49.9 µM | [5] > 100 µM | [6] 48.3 µM | [7] > 100 µM | [14] > 100 µM | [15] 25.4 µM | [9] 50.6 µM | [10] 61.5 µM | [11] 75 µM | [12] > 100 µM | [13] 59.2 µM

C[C@]12CCC(=O)C[C@H]1CCC(O)[C@@H]2Br (some centres undefined)
inactive: [1] > 100 µM | [2] > 100 µM | [3] > 100 µM | [4] > 100 µM | [5] > 100 µM | [6] > 100 µM | [7] > 100 µM | [8] > 100 µM | [14] > 100 µM | [15] > 100 µM | [9] > 100 µM | [10] > 100 µM | [11] > 100 µM | [12] > 100 µM | [13] > 100 µM

CC(C)(C)c1ccccc1NS(=O)(=O)c1ccccc1
inactive: [1] 59.8 µM | [2] > 100 µM | [3] > 100 µM | [4] 44.9 µM | [5] 94 µM | [6] 65 µM | [7] 96.2 µM | [8] 38 µM | [14] > 100 µM | [15] 60.8 µM | [9] > 100 µM | [10] 62.4 µM | [11] > 100 µM | [12] > 100 µM | [13] 30.1 µM

CC1(C)C2CCC13C(=O)C1OC3(C2)C2C(=O)N(c3ccccc3)C(=O)C12 (centres undefined)
inactive: [1] > 100 µM | [2] > 100 µM | [3] > 100 µM | [4] > 100 µM | [5] > 100 µM | [6] > 100 µM | [7] > 100 µM | [8] > 100 µM | [14] > 100 µM | [15] > 100 µM | [9] > 100 µM | [10] > 100 µM | [11] > 100 µM | [12] > 100 µM | [13] > 100 µM

Nc1nc(-c2ccco2)cc(-c2ccco2)n1
inactive: [1] > 100 µM | [2] 5.14 µM | [3] > 100 µM | [4] > 100 µM | [5] > 100 µM | [6] > 100 µM | [7] > 100 µM | [8] > 100 µM | [14] > 100 µM | [15] > 100 µM | [9] > 100 µM | [10] > 100 µM | [11] 64.1 µM | [12] > 100 µM | [13] 42.7 µM

C/C=C(/CCC1NCCC2c3ccccc3NC12)[Si](C)(C)C (centres undefined)
inactive: [1] 14.6 µM | [2] 8.55 µM | [3] 15.2 µM | [4] 2.75 µM | [5] 4.62 µM | [6] 4.52 µM | [7] 3.66 µM | [8] 3.17 µM | [14] 7.28 µM | [15] 2.84 µM | [9] 15.8 µM | [10] 11.7 µM | [11] 9.73 µM | [12] 15 µM | [13] 7.08 µM

COC1=C(C)C(=O)c2c(cc3c(c2O)C(C)(CCC=C(C)C)C(C)O3)C1=O (centres undefined)
inactive: [1] 20 µM | [2] > 57.1 µM | [3] 18.2 µM | [4] > 54.8 µM | [5] > 100 µM | [6] > 55.7 µM | [7] 23.4 µM | [8] > 100 µM | [14] > 100 µM | [15] > 100 µM | [9] > 100 µM | [10] 33.5 µM | [11] 19.9 µM | [12] > 100 µM | [13] > 100 µM

CN(C)c1nnnn1-c1c(N)n(C)c(=O)n(C)c1=O
inactive: [1] > 100 µM | [2] > 100 µM | [3] > 100 µM | [4] > 100 µM | [5] > 100 µM | [6] > 100 µM | [8] > 100 µM | [14] > 100 µM | [15] > 100 µM | [9] > 100 µM | [10] > 100 µM | [11] > 100 µM | [12] > 100 µM | [13] > 100 µM

Cn1ncnc1CCc1ccccc1
inactive: [1] > 100 µM | [2] > 100 µM | [3] > 100 µM | [4] > 100 µM | [5] > 100 µM | [6] > 100 µM | [7] > 100 µM | [8] > 100 µM | [14] > 100 µM | [15] > 100 µM | [9] > 100 µM | [10] > 100 µM | [11] > 100 µM | [12] > 100 µM | [13] > 100 µM

COc1cc(Nc2cnc3ccc(N)cc3n2)cc(OC)c1OC
inactive: [1] > 100 µM | [2] > 85.3 µM | [3] 29.2 µM | [4] 18.5 µM | [5] 56.6 µM | [6] 39.4 µM | [7] > 100 µM | [8] 49 µM | [14] > 100 µM | [15] 16.6 µM | [10] > 100 µM | [11] 49.3 µM | [12] > 83.6 µM | [13] 37.8 µM

O=C(CCN1CCCCC1CCO)Nc1ccc2c(c1)C(=O)c1ccc(NC(=O)CCN3CCCCC3CCO)cc1C2=O (centres undefined)
inactive: [1] 16.7 µM | [2] 2.83 µM | [3] 4.35 µM | [4] 3.85 µM | [5] 20.1 µM | [6] 2.54 µM | [8] 4.25 µM | [14] 17.7 µM | [15] 4.45 µM | [9] 2.1 µM | [10] 3.67 µM | [11] 2.81 µM | [12] 3.1 µM | [13] > 100 µM

Oc1c2c(nc3cc4c(cc13)OCO4)-c1ccccc1CC2
inactive: [1] > 100 µM | [2] > 100 µM | [3] > 100 µM | [4] > 100 µM | [5] > 100 µM | [7] > 100 µM | [8] > 100 µM | [15] > 100 µM | [9] > 100 µM | [10] > 100 µM | [11] 23.6 µM | [12] > 100 µM | [13] > 100 µM

Reference: ChEMBL document CHEMBL1201862, “PubChem BioAssay data set” (2004)
